Assay results as given in ChEMBL document CHEMBL1201862, “PubChem BioAssay data set” (2004).
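96-well plates; 48 h exposure; 5 concentrations. Endpoints by linear interpolation between flanking doses. Not reached: highest tested concentration assigned. GI50 is the concentration that inhibits growth by half.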 Calls of active or inactive are those of the source. Cut-off read from the data, not from the text of the source: active = GI50 up to about 1.1 µM and inactive = higher.

Experiments:
Assay in all cases: NCI tumour cell line growth inhibition, 48 h
ACHN = tested on: ACHN
DLD-1 = tested on: DLD-1
K562 = tested on: K562
OVCAR-3 = tested on: OVCAR-3
UACC-62 = tested on: UACC-62
OVCAR-5 = tested on: OVCAR-5
SF-268 = tested on: SF-268
HL-60 = tested on: HL-60
NCI-H460 = tested on: NCI-H460
SF-539 = tested on: SF-539
NCI-H23 = tested on: NCI-H23
EKVX = tested on: EKVX
U-251 = tested on: U-251
786-0 = tested on: 786-0
M14 = tested on: M14
HCC 2998 = tested on: HCC 2998
SN12C = tested on: SN12C
CAKI-1 = tested on: CAKI-1
DU-145 = tested on: DU-145
MCF7 = tested on: MCF7

| Compound | GI50 (ACHN) | GI50 (DLD-1) | GI50 (K562) | GI50 (OVCAR-3) | GI50 (UACC-62) | GI50 (OVCAR-5) | GI50 (SF-268) | GI50 (HL-60) | GI50 (NCI-H460) | GI50 (SF-539) | GI50 (NCI-H23) | GI50 (EKVX) | GI50 (U-251) | GI50 (786-0) | GI50 (M14) | GI50 (HCC 2998) | GI50 (SN12C) | GI50 (CAKI-1) | GI50 (DU-145) | GI50 (MCF7) |
| --- | --- | --- | --- | --- | --- | --- | --- | --- | --- | --- | --- | --- | --- | --- | --- | --- | --- | --- | --- | --- |
| N#CCN1C(=O)c2cccc3cc([N+](=O)[O-])cc(c23)C1=O | 42.5 µM (inactive) | 32 µM (inactive) | 27.5 µM (inactive) | 29.4 µM (inactive) | 22.6 µM (inactive) | 31.3 µM (inactive) | 52 µM (inactive) | 23.8 µM (inactive) | 29 µM (inactive) | 33 µM (inactive) | 29.5 µM (inactive) | 74.8 µM (inactive) | 38.7 µM (inactive) | 60.3 µM (inactive) | 37.3 µM (inactive) | 44.8 µM (inactive) | 29.4 µM (inactive) |  |  |  |
| CN/N=C(/c1nc2ccc([N+](=O)[O-])cc2nc1O)C(O)c1ccc(C(O)/C(=N\NC)c2nc3ccc([N+](=O)[O-])cc3nc2O)cc1 (configuration not stated) | 46.9 µM (inactive) | 35.6 µM (inactive) | 32.5 µM (inactive) | > 100 µM (inactive) | 44.9 µM (inactive) | > 100 µM (inactive) | > 100 µM (inactive) | 4.37 µM (inactive) | 42.6 µM (inactive) | 42.6 µM (inactive) | > 100 µM (inactive) | > 100 µM (inactive) | > 100 µM (inactive) | > 100 µM (inactive) | 52.4 µM (inactive) | 23.9 µM (inactive) |  | > 100 µM (inactive) |  |  |
| COc1ccc(NC(=O)C/C(C)=N\N=C(N)N)c([N+](=O)[O-])c1 | > 100 µM (inactive) | 34.5 µM (inactive) | > 100 µM (inactive) | > 100 µM (inactive) | > 100 µM (inactive) | > 100 µM (inactive) | > 100 µM (inactive) | 88.5 µM (inactive) | > 100 µM (inactive) | > 100 µM (inactive) | > 100 µM (inactive) | > 100 µM (inactive) | > 100 µM (inactive) | > 100 µM (inactive) | > 100 µM (inactive) | > 100 µM (inactive) | > 100 µM (inactive) | > 100 µM (inactive) |  |  |
| C/C(=N\NS(=O)(=O)c1ccc(C)cc1)c1c(O)cc(C)oc1=O | > 100 µM (inactive) | > 100 µM (inactive) | > 100 µM (inactive) |  | > 100 µM (inactive) |  | > 100 µM (inactive) | > 100 µM (inactive) | > 100 µM (inactive) | > 100 µM (inactive) | > 100 µM (inactive) | > 100 µM (inactive) | > 100 µM (inactive) | > 100 µM (inactive) | > 100 µM (inactive) | > 100 µM (inactive) | > 100 µM (inactive) | > 100 µM (inactive) |  |  |
| COC(=O)C(=O)CC(=O)CCn1[nH]c(=O)c(Cl)c(Cl)c1=O | > 100 µM (inactive) | > 100 µM (inactive) | > 100 µM (inactive) | > 100 µM (inactive) | > 100 µM (inactive) | > 100 µM (inactive) | > 100 µM (inactive) | > 100 µM (inactive) | > 100 µM (inactive) | > 100 µM (inactive) | > 100 µM (inactive) | > 100 µM (inactive) | > 100 µM (inactive) | > 100 µM (inactive) | > 100 µM (inactive) | > 100 µM (inactive) | > 100 µM (inactive) | > 100 µM (inactive) |  |  |
| O=C1C(=O)N(c2ccc(Cl)cc2)C(=O)C(=O)C1c1nc2ccccc2o1 | > 100 µM (inactive) | > 100 µM (inactive) | > 100 µM (inactive) | > 100 µM (inactive) | > 100 µM (inactive) | > 100 µM (inactive) | > 100 µM (inactive) | > 100 µM (inactive) | > 100 µM (inactive) | > 100 µM (inactive) | > 100 µM (inactive) | > 100 µM (inactive) | > 100 µM (inactive) | > 100 µM (inactive) | > 100 µM (inactive) | > 100 µM (inactive) | > 100 µM (inactive) | > 100 µM (inactive) |  |  |
| N=S(c1ccccc1)c1ccccc1[N+](=O)[O-] (configuration not stated) | 17.3 µM (inactive) | 18.6 µM (inactive) | 10.4 µM (inactive) | 10.6 µM (inactive) | 16.8 µM (inactive) | 20.1 µM (inactive) | 19.8 µM (inactive) | 12.9 µM (inactive) | 28.1 µM (inactive) | 18.5 µM (inactive) | 20 µM (inactive) | 19.8 µM (inactive) | 17.4 µM (inactive) | 14.9 µM (inactive) | 14.4 µM (inactive) | 19.1 µM (inactive) | 15.8 µM (inactive) | 13.7 µM (inactive) |  |  |
| Cc1nc(N)c(-c2ccccc2)s1 | > 100 µM (inactive) | > 82.6 µM (inactive) | > 70.5 µM (inactive) | > 92 µM (inactive) | > 72.1 µM (inactive) | > 100 µM (inactive) | > 100 µM (inactive) | 28.6 µM (inactive) | 51.1 µM (inactive) | 70.8 µM (inactive) | > 100 µM (inactive) | > 94.6 µM (inactive) | > 48.5 µM (inactive) | 77.6 µM (inactive) | 40.9 µM (inactive) | > 100 µM (inactive) | 81.3 µM (inactive) | > 92.7 µM (inactive) |  |  |
| CCCCCCN(CCCCCC)C(=O)Cc1c2n(c3ccccc13)Cc1ccccc1-2 | 50.2 µM (inactive) | 33.7 µM (inactive) | 33.4 µM (inactive) | 43.4 µM (inactive) | > 100 µM (inactive) |  | 99.1 µM (inactive) | 19.8 µM (inactive) | 63.1 µM (inactive) | > 100 µM (inactive) | 49.8 µM (inactive) | 69.8 µM (inactive) | 34.4 µM (inactive) | 85.1 µM (inactive) | 44.8 µM (inactive) | 53.7 µM (inactive) | 52.5 µM (inactive) | > 100 µM (inactive) |  |  |
| CC(C)c1cc2c(O)c(c1)Cc1cc(C(C)C)cc(c1O)Cc1cc(C(C)C)cc(c1O)Cc1cc(C(C)C)cc(c1O)Cc1cc(C(C)C)cc(c1O)Cc1cc(C(C)C)cc(c1O)C2 | > 100 µM (inactive) | > 100 µM (inactive) | > 100 µM (inactive) | > 100 µM (inactive) | > 100 µM (inactive) | > 100 µM (inactive) | > 100 µM (inactive) | > 100 µM (inactive) | > 100 µM (inactive) | > 100 µM (inactive) | > 100 µM (inactive) | > 100 µM (inactive) | > 100 µM (inactive) | > 100 µM (inactive) | > 100 µM (inactive) | > 100 µM (inactive) | > 100 µM (inactive) |  |  |  |
| N#Cc1cc([N+](=O)[O-])ccc1NC(=O)C(=O)C(C(=O)c1ccc2ccccc2c1)C1OCc2ccccc21 (configuration not stated) | 14.1 µM (inactive) | 11.1 µM (inactive) | 6.25 µM (inactive) | 3.06 µM (inactive) | 7.46 µM (inactive) | 14.2 µM (inactive) | 4.11 µM (inactive) | 12.2 µM (inactive) | 4.38 µM (inactive) | 1.82 µM (inactive) | 4.5 µM (inactive) | 16.4 µM (inactive) | 4 µM (inactive) | 6.28 µM (inactive) | 15.1 µM (inactive) | 10.3 µM (inactive) | 13.7 µM (inactive) | 9.4 µM (inactive) |  |  |
| S=c1[nH]nc(Cc2ccccc2)c(=S)[nH]1 | 4.8 µM (inactive) | 94.8 µM (inactive) | 61.1 µM (inactive) | > 61.7 µM (inactive) | > 25.9 µM (inactive) | > 50.2 µM (inactive) | 4.63 µM (inactive) | > 54.8 µM (inactive) | > 52.5 µM (inactive) | > 76.4 µM (inactive) | > 64.4 µM (inactive) |  | > 55.1 µM (inactive) | > 100 µM (inactive) | > 78.9 µM (inactive) | > 45.9 µM (inactive) | 65.3 µM (inactive) | > 54.8 µM (inactive) | 61.9 µM (inactive) | 55.8 µM (inactive) |
| CCCN(CCC)C(=O)C(=O)c1c(N)[nH]n(-c2ccccc2)c1=O | > 100 µM (inactive) | 78.3 µM (inactive) | 43.5 µM (inactive) | > 100 µM (inactive) | > 100 µM (inactive) | > 100 µM (inactive) | > 100 µM (inactive) | 80.9 µM (inactive) | > 100 µM (inactive) | > 100 µM (inactive) | > 100 µM (inactive) | > 100 µM (inactive) | > 100 µM (inactive) | > 100 µM (inactive) | > 100 µM (inactive) | > 100 µM (inactive) | > 100 µM (inactive) | > 100 µM (inactive) |  |  |
| CC[C@H]1CN2CCc3cc(OC)c(OC)cc3[C@@H]2C[C@@H]1C[C@H]1NCCc2c1[nH]c1ccc(O)cc21 [TUBULOSINE] | 0.0396 µM (active) | 0.0279 µM (active) | < 0.013 µM (active) | 0.0276 µM (active) | 0.0182 µM (active) | 0.0153 µM (active) | < 0.0105 µM (active) | < 0.01 µM (active) | 0.0102 µM (active) | 0.0164 µM (active) | < 0.0113 µM (active) | 0.0294 µM (active) | < 0.0103 µM (active) | < 0.01 µM (active) | < 0.0125 µM (active) | < 0.0105 µM (active) | < 0.01 µM (active) |  | < 0.01 µM (active) | < 0.01 µM (active) |
| ClCCN(CC#CCCCC#CCN(CCCl)CCCl)CCCl | 3.82 µM (inactive) | 15.6 µM (inactive) | 11 µM (inactive) | 11.6 µM (inactive) | 4.98 µM (inactive) | 11.7 µM (inactive) | 8.85 µM (inactive) | 1.26 µM (inactive) | 2.73 µM (inactive) | 8.36 µM (inactive) | 6.85 µM (inactive) | 22.8 µM (inactive) | 8.43 µM (inactive) | 4.61 µM (inactive) | 14.5 µM (inactive) | 18.4 µM (inactive) | 7.21 µM (inactive) | 7.67 µM (inactive) |  | 8.75 µM (inactive) |
